According to patent publication US7015306B2 (BioSynthema, Inc., priority 1999, dated 2006):
*1 amine or outer side, *2 acyl side, *3 side chain or, on linkers, in order; H or OH if unused. Where a SMILES comes first, the peptide text is derived from it. [ ]: non-standard residue; d: D form. The star is where a group is joined. Gly(1-amidinopiperidin-4-yl) = N=C(N)N1CCC([C@H](N)C(=O)O)CC1; DTPA = O=C(O)CN(CCN(CC(=O)O)CC(=O)O)CCN(CC(=O)O)CC(=O)*; X2 = NC[C@H]1CC[C@H](C[C@H](N[*:1])C(=O)[*:2])CC1; Tle = CC(C)(C)[C@H](N)C(=O)O

Columns and labels:
[1] = In vitro serum stability assay (HPLC) of In-111 labeled peptide; type: in vitro ADME, human; details: for remaining at 4 h: t = 4 h
Experimental: (§1) All reagents were purchased from Sigma unless otherwise noted. The peptide and ^111InCl3 in 0.05 N HCl were incubated in a sodium acetate/ascorbic acid buffer for 30 minutes at room temperature. The reaction was diluted with 5% ethanol/95% PBS before using in subsequent in vitro assays.
(§2) Human serum was purchased from Sigma (H 1388). The labeled peptide was incubated in either human serum or rat urine at 37EC for the specified amount of time. An aliquot was filtered through a 0.45 μm syringe filter prior to HPLC injection.

[2] = In vitro urine stability assay (HPLC) of In-111 labeled peptide; type: in vitro ADME; details: for remaining at 4 h: rat, t = 4 h
Experimental: as §1, §2

[3] = human serum, 37EC, read-out: HPLC Evaluation of Serum Stability at 37EC, Serum, t = 4 h
[4] = 37EC, read-out: HPLC Evaluation of Urine Stability at 37EC, Urine, t = 4 h

Structure (SMILES)	remaining at 4 h [1, 3] [%]	HPLC Evaluation of Serum Stability at 37EC, Serum, t = 0 ([1]; human serum) [%]	HPLC Evaluation of Urine Stability at 37EC, Urine, t = 0 ([2]; rat urine) [%]	remaining at 4 h [2, 4] [%]	remaining at 4 h ([1]; Table 4, human serum, read-out: Serum Stability, Serum (t = 4 h)) [%]	remaining at 4 h ([2]; Table 4, rat urine, read-out: Urine Stability, Urine (t = 4 h)) [%]	% of peptide at 4 hours after incubation at 37EC, Serum ([1]; human serum, 37EC, 4 hours) [%]	% of peptide at 4 hours after incubation at 37EC, Urine ([2]; rat urine, 37EC, 4 hours) [%]
CC[C@H](C)[C@H](NC(=O)[C@H](Cc1ccc(O)cc1)NC(=O)[C@@H]1CCCN1C(=O)[C@H](CCCNC(=N)N)NC(=O)C(CCc1ccnc(N)n1)NC(=O)[C@@H]1CCCN1C(=O)[C@@H](CCCCN)NC(=O)CN(CCN(CCN(CC(=O)O)CC(=O)O)CC(=O)O)CC(=O)O)C(=O)N[C@@H](CC(C)C)C(=O)O (single isomer, unassigned) [In-111-DTPA-DK-P-Aba(Apy)-R-P-Y-J-L, metal not drawn]	4.3	96.9	95.6	6	–	–	–	–
CC[C@H](C)[C@H](NC(=O)[C@H](Cc1ccc(O)cc1)NC(=O)[C@@H]1CCCN1C(=O)[C@H](CCCNC(=N)N)NC(=O)C(NC(=O)[C@@H]1CCCN1C(=O)[C@@H](CCCCN)NC(=O)CN(CCN(CCN(CC(=O)O)CC(=O)O)CC(=O)O)CC(=O)O)C1CCN(C(=N)N)CC1)C(=O)N[C@@H](CC(C)C)C(=O)O (single isomer, unassigned) [In-111-DTPA-DK-P-G(PipAm)-R-P-Y-I-L, metal not drawn]	19.5	–	–	16.6	–	–	–	–
CC(C)C[C@H](NC(=O)[C@@H](NC(=O)[C@H](Cc1ccc(O)cc1)NC(=O)[C@@H]1CCCN1C(=O)[C@H](CCCNC(=N)N)NC(=O)C(NC(=O)[C@@H]1CCCN1C(=O)[C@@H](CCCCN)NC(=O)CN(CCN(CCN(CC(=O)O)CC(=O)O)CC(=O)O)CC(=O)O)C1CCN(C(=N)N)CC1)C(C)(C)C)C(=O)O (single isomer, unassigned) [In-111-DTPA-DK-P-G(PipAm)-R-P-Y-tBuG-L, metal not drawn]	–	–	–	–	87.5	63	–	–
CC[C@H](C)[C@H](NC(=O)[C@H](Cc1ccc(O)cc1)NC(=O)[C@@H]1CCCN1C(=O)C(CCc1ccnc(N)n1)NC(=O)[C@H](CCCNC(=N)N)NC(=O)[C@@H]1CCCN1C(=O)[C@@H](CCCCN)NC(=O)CN(CCN(CCN(CC(=O)O)CC(=O)O)CC(=O)O)CC(=O)O)C(=O)N[C@@H](CC(C)C)C(=O)O (single isomer, unassigned) [In-111-DTPA-DK-P-R-Aba(Apy)-P-Y-I-L, metal not drawn]	15.7	98.1	96.7	4.7	–	–	–	–
CC[C@H](C)[C@H](NC(=O)[C@H](Cc1ccc(O)cc1)NC(=O)[C@@H]1CCCN1C(=O)C(Cc1ccc(NC(=N)N)cc1)NC(=O)[C@H](CCCNC(=N)N)NC(=O)[C@@H]1CCCN1C(=O)[C@@H](CCCCN)NC(=O)CN(CCN(CCN(CC(=O)O)CC(=O)O)CC(=O)O)CC(=O)O)C(=O)N[C@@H](CC(C)C)C(=O)O (single isomer, unassigned) [In-111-DTPA-DK-P-R-F(Gu)-P-Y-I-L, metal not drawn]	16.3	94	90.4	0	–	–	–	–
CC(C)C[C@H](NC(=O)[C@@H](NC(=O)[C@H](Cc1ccc(O)cc1)NC(=O)[C@@H]1CCCN1C(=O)[C@H](CCCNC(=N)N)NC(=O)[C@@H](NC(=O)[C@@H]1CCCN1C(=O)[C@H](C[C@H]1CC[C@H](CN)CC1)NC(=O)CN(CCN(CCN(CC(=O)O)CC(=O)O)CC(=O)O)CC(=O)O)C1CCN(C(=N)N)CC1)C(C)(C)C)C(=O)O [Compound XII, DTPA-trans-Cha(4-CH2NH2)-Pro-Gly(PipAm)-Arg-Pro-Tyr-tBuGly-Leu-OH] ({DTPA}-[X2]P[Gly(1-amidinopiperidin-4-yl)]RPY[Tle]L-OH)	–	–	–	–	–	–	94.8	89.4
